Calls of active or inactive are those of the source.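 The calls were made as follows: active = compounds whose mean EC50, the dose giving half the maximal reporter activation, is at or below a set limit; inactive = the rest.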
Molecular target: CHO-CHOP luciferase reporter, UPR activation, luminescence
Assay: activators of PERK-eIF2a-CHOP UPR arm, confirmation, CHO-CHOP cells, luciferase luminescence (AID 489024);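 also: compounds added alone to reporter cells with no tunicamycin stress co-treatment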

Cc1ccc(F)cc1N=Cc1c(O)c2ccccc2oc1=O showed an EC50 of 6.17 µM.

CC1=NN(c2cccc(C(=O)O)c2)C(=O)/C1=C\C=C/c1ccccc1 showed an EC50 of 11.7 µM.

COC(=O)c1cc(=O)n(CCc2ccc(OC)c(OC)c2)c(=Nc2ccc(F)c(Cl)c2)s1 gave an EC50 of 16.9 µM.

With N#CC12COC3(CCCCC3C1(C#N)C#N)OC2=N (stereo unspecified) the EC50 was > 80 µM (inactive).

With Cn1nnnc1Sc1ncnc2scc(-c3ccc([N+](=O)[O-])cc3)c12 the EC50 was 12.3 µM.

In the case of O=C1C(CSCc2ccccc2)NC(=S)N1c1ccccc1 (stereo unspecified), the EC50 is reported as “inactive”.

In the case of NC(N)=N/N=C/c1ccc(N(c2ccccc2)c2ccccc2)cc1, the EC50 is reported as > 80 µM (inactive).

For O=C1Nc2ccc(Br)cc2/C1=N/N=C/C1=C(N2CCOCC2)C(=C\c2ccccc2)/CC1, the EC50 was > 80 µM (inactive).

Work on COC(=O)[C@@H]1[C@@H](C#N)C2(c3ccccc3-c3ccccc32)N(c2ccc(Cl)cc2)N1C#N yielded an EC50 of 13 µM.

Cc1cc(C)c2c(c1)/C(=c1/sc3n(c1=O)CN(c1ccccc1)CN=3)C(=O)N2 showed an EC50 of 11.6 µM.

O=C(N/N=C/c1ccccn1)c1cc(-c2ccc(Cl)cc2)nc2ccccc12 gave an EC50 of 2.51 µM.

Work on COc1ccc(C(=O)Cn2c(C(=O)/C=C/c3ccccc3)nc3ccccc32)cc1 yielded an EC50 of 10.1 µM.

In the case of C=CCn1nc([N+](=O)[O-])nc1Sc1cccc2cccnc12, the EC50 is reported as 6.67 µM.

CC(C)(C)C(=O)NC(=S)NNC(=O)c1ccc(-c2ccccc2)cc1 showed an EC50 of 12.9 µM.

Compound C/C(=N\NC(=O)c1ccc(Cl)c(Cl)c1)c1ccccn1 has an EC50 of 3.26 µM.

With CCCn1c(CC)nc([N+](=O)[O-])c1S(=O)(=O)c1ccccc1 the EC50 was > 80 µM (inactive).

O=C(Nc1nc(-c2ccccn2)cs1)c1cc(Cl)ccc1[N+](=O)[O-] gave an EC50 of 6.29 µM.

In the case of CCc1cc2c(=O)c(-c3cnn(-c4ccccc4)c3)c(C)oc2cc1OCC(=O)Nc1cccc(C)c1, the EC50 is reported as 15.1 µM.

Cc1cc(C)n(-c2nc(NC(C)(C)C)nc(NC(C)(C)C)n2)n1 was tested, and the EC50 was > 80 µM (inactive).

In the case of O=C(Nc1ccc(Cl)cc1)/C(=C/c1cccc(O)c1)c1nc2ccccc2s1, the EC50 is reported as > 80 µM (inactive).

In the case of COc1ccc(NC(=O)C(=O)N/N=C\c2ccc(CNC(=O)C(=O)Nc3ccc(C)c(C)c3)o2)c(OC)c1, the EC50 is reported as 8.25 µM.

Work on CCOc1ccccc1N=Cc1c(O)c2ccccc2oc1=O yielded an EC50 of 7.86 µM.

Cc1cc(C(=O)c2ccc(Cl)cc2)c(NC(=O)CCl)s1 showed an EC50 of 16.4 µM.

Cc1ccc(S(=O)(=O)Nc2cccc3cccnc23)c([N+](=O)[O-])c1 gave an EC50 of 7.17 µM.

In the case of Oc1[nH]c2ccccc2c1N=NC(=S)N1CCOCC1, the EC50 is reported as 7.74 µM.

With CCOC(=O)N1CCN(S(=O)(=O)c2ccc(C(=O)Nc3nc4c(s3)CC(C)CC4)cc2)CC1 (stereo unspecified) the EC50 was > 80 µM (inactive).

CCOc1ccc(N2C(=O)/C(=C\c3cccs3)C(=O)NC2=S)cc1 was tested, and the EC50 was 8.68 µM.

CCOC(=O)CSc1cccc2cccnc12 showed an EC50 of 11.4 µM.

With S=C1SCN(Cc2ccccn2)CN1Cc1ccco1 the EC50 was > 80 µM (inactive).

Work on COc1cc(SC#N)ccc1N=Cc1c(C)[nH]n(-c2ccc(Cl)cc2)c1=O yielded an EC50 of 11.9 µM.

In the case of C/C(=N\NC(=O)c1cccc2ccccc12)c1ccccn1, the EC50 is reported as 3.22 µM.

Cc1ccc2oc(Nc3nc(-c4ccccc4)cc(=O)[nH]3)nc2c1 showed an EC50 of 7.41 µM.

Cc1cccnc1Nc1nc(-c2ccccn2)cs1 showed an EC50 of 0.64 µM.

Compound COc1cc([C@H]2c3[nH]c4ccccc4c3C[C@H]3C(=O)N4[C@@H](c5cc(OC)c(OC)c(OC)c5)c5[nH]c6ccccc6c5C[C@H]4C(=O)N23)cc(OC)c1OC has an EC50 of 11.3 µM.

COc1ccc(C(=O)Nc2ccccc2C(=O)N/N=C/c2ccccn2)cc1OC showed an EC50 of 6.44 µM.

In the case of CCOC(=O)C1=C(Cc2ccc(Cl)cc2)C(=O)c2ccccc2C1=O, the EC50 is reported as > 80 µM (inactive).

In the case of CCN(CC)S(=O)(=O)c1ccc(N/N=C(\C)c2ccc3c(c2)OCO3)c([N+](=O)[O-])c1, the EC50 is reported as “inactive”.

COc1cccc(/C=N/Nc2nc(Nc3ccccc3)nc(-n3nc(C)cc3C)n2)c1O showed an EC50 of 4.28 µM.

Work on Cc1ccc(C(=O)/C=C/C(=O)c2ccc(C)cc2)cc1 yielded an EC50 of 8.35 µM.

O=C1Nc2ccccc2/C1=C/C(=O)c1cccs1 gave an EC50 of 14.4 µM.

CCOC(=O)C(=Cc1ccc(OCc2ccc([N+](=O)[O-])cc2)c(OC)c1)C(=O)OCC was tested, and the EC50 was 6.51 µM.

In the case of OCCNc1nc(Nc2ccc(Br)cc2)nc2ccccc12, the EC50 is reported as 8.18 µM.

COc1ccc(NC(=O)c2sc3nc(N4CCOCC4)c4c(c3c2N)CC(C)(C)OC4)c(OC)c1 was tested, and the EC50 was > 80 µM (inactive).

For COc1cc(NC(=O)c2cncc(-c3ccc(C#N)cc3)c2)cc(C(=O)Nc2cccc(C(F)(F)F)c2)c1, the EC50 was “inactive”.

COC(=O)c1ccc(-n2c(C)cc(C(=O)CCl)c2C)cc1 gave an EC50 of 4.62 µM.

For COC(=O)c1ccc(COc2ccccc2/C=C(\C#N)C(=O)Nc2c(C)cccc2C)cc1, the EC50 was 11.8 µM.
